Where two headings read alike, the source gives them in different places.
Assays:
[1] = system: Tardive Dyskinesia sufferers; conditions: 80 mg/day; cited from earlier work
[2] = system: patients suffering from tardive dyskinesia; conditions: cited from earlier work
amphetamine-induced rats = assay: Amphetamine-induced locomotor activity and stereotypic behaviour, open field arena (Example 2, Studies 1, 2, 4); assay type: in vivo, rat; conditions: for normalised total stereotypic behaviour, compared to vehicle-amphetamine group / total distance travelled, compared to vehicle-amphetamine group: amphetamine at t=30 min; for locomotor activity compared to the vehicle-amphetamine group (conclusion) / stereotypic behaviour compared to the vehicle-amphetamine group (conclusion): risperidone 1 mg/kg
Text: Dopaminergic models for Tourette's syndrome use systemic or focal administration of dopamine agonists such as amphetamine. After injection with amphetamine, a test animal expresses stereotypic behaviour. In particular, involvement of a dopaminergic system implicated in Tourette's syndrome wild type mice and rats can be stimulated with amphetamine and the resulting hyperactivity and stereotypies can be reversed with dopamine antagonists such as risperidone and haloperidol (Tourette's syndrome—Animal Models for Screening, Charles River Discovery Research Services, Finland).
(§1) All animal experiments were carried out according to the National Institute of Health (NIH) guidelines for the care and use of laboratory animals, and approved by the National Animal Experiment Board, Finland. Male CD (Charles River Laboratories, Germany) at weight range of 200-250 g (165-200 g upon arrival) were used for the experiments. Animals were housed at a standard temperature (22±1° C.) and in a light-controlled environment (lights on from 7 am to 8 pm) with ad libitum access to food and water.
(§2) Locomotor activity of the rats was tested in open field arena. The open field test was performed during the rat light cycle and under a normal lighting evenly distributed to the test chambers. The paths of the rats were recorded by activity monitor (Med. Associates Inc.).
(§3) Dosing the vehicle, vehicle-amphetamine, (+)-α-DHTBZ or risperidone was done prior to LMA test. The rats were placed in the centre of the arena, and the path was recorded for 60 minutes.
(§4) Animals were grouped as follows: • Group 1: 10 rats treated with Vehicle (t=0 min) and Vehicle (t=30 min) • Group 2: 10 rats treated with Vehicle (t=0 min) and Amphetamine (t=30 min) • Group 3: 10 rats treated with (+)-α-DHTBZ 0.5 mg/kg (t=0 min) and Amphetamine (t=30 min) • Group 4: 10 rats treated with (+)-α-DHTBZ 1 mg/kg (t=0 min) and Amphetamine (t=30 min) • Group 5: 10 rats treated with (+)-α-DHTBZ 1.5 mg/kg (t=0 min) and Amphetamine (t=30 min) • Group 6: 10 rats treated with (+)-α-DHTBZ 2 mg/kg (t=0 min) and Amphetamine (t=30 min) • Group 7: 10 rats treated with risperidone 1 mg/kg (t=0 min) and Amphetamine (t=30 min)
(§5) Rats dosed with either vehicle, (+)-α-DHTBZ 0.5 mg/kg, (+)-α-DHTBZ 1 mg/kg, (+)-α-DHTBZ 1.5 mg/kg, (+)-α-DHTBZ 2 mg/kg or Risperidone 1 mg/kg were subjected to LMA testing first for 30 min and then for 60 minutes after vehicle or amphetamine challenge. Resulting locomotor activity was evaluated in 3 min bins and as a total over the testing period.
as §5, with “stereotypic” for “locomotor”
Animals were grouped as follows: • Group 1: 10 rats treated with Vehicle (t=0 min) and Vehicle (t=30 min) • Group 2: 10 rats treated with Vehicle (t=0 min) and Amphetamine (t=30 min) • Group 3: 10 rats treated with (+)-α-DHTBZ 0.1 mg/kg (t=0 min) and Amphetamine (t=30 min) • Group 4: 10 rats treated with (+)-α-DHTBZ 0.25 mg/kg (t=0 min) and Amphetamine (t=30 min) • Group 5: 10 rats treated with risperidone 1 mg/kg (t=0 min) and Amphetamine (t=30 min)
as §4, with “(+)-α-DHTBZ 1” for “(+)-α-DHTBZ 0.5”, “(+)-α-DHTBZ 1.5” for “(+)-α-DHTBZ 1”, “with Valbenazine 1” for “with (+)-α-DHTBZ 1.5”, “with Valbenazine 1.5” for “with (+)-α-DHTBZ 2”

[3] = oral administration of tetrabenazine, four patients affected by tardive dyskinesia; cited from earlier work
[4] = rats, administration of tetrabenazine or dihydrotetrabenazine; stereochemistry not disclosed; cited from earlier work
[5] = system: non-amphetamine induced rats; assay: Locomotor activity and stereotypic behaviour in non-amphetamine induced rats, open field arena (Example 2, Study 3); assay type: in vivo, rat; conditions: Study 3, non-induced rats; (+)-α-DHTBZ 2.5 mg/kg or 5 mg/kg, risperidone 1 mg/kg
Description: as §1, §2, §3
Animals were grouped as follows: • Group 1: 10 rats treated with Vehicle • Group 2: 10 rats treated with (+)-α-DHTBZ 2.5 mg/kg • Group 3: 10 rats treated with (+)-α-DHTBZ 5 mg/kg • Group 4: 10 rats treated with risperidone 1 mg/kg

[6] = oral administration of tetrabenazine, patients treated for involuntary movement disorders; cited from earlier work
[7] = Study 1, (+)-α-DHTBZ at all the tested doses (0.5, 1, 1.5, 2 mg/kg)

COc1cc2c(cc1OC)[C@H]1C[C@@H](OC(=O)[C@@H](N)C(C)C)[C@H](CC(C)C)CN1CC2 [Valbenazine, reference compound]
Abnormal Involuntary Movement Score [1]: significant improvement | symptoms scored with the abnormal involuntary movement scale (AIMS) ([2]; 50 mg/day): did not show any significant signs of improvement | symptoms scored with the abnormal involuntary movement scale (AIMS) ([2]; 100 mg/day): some reduction of symptoms | normalised total stereotypic behaviour, compared to vehicle-amphetamine group (amphetamine-induced rats; Study 4, 1 mg/kg): significantly different | total distance travelled, compared to vehicle-amphetamine group (amphetamine-induced rats; Study 4, 1 mg/kg): significantly different | normalised total stereotypic behaviour, compared to vehicle-amphetamine group (amphetamine-induced rats; Study 4, 1.5 mg/kg): significantly different | total distance travelled, compared to vehicle-amphetamine group (amphetamine-induced rats; Study 4, 1.5 mg/kg): significantly different

COc1cc2c(cc1OC)C1CC(O)C(CC(C)C)CN1CC2 (stereo not drawn) [dihydrotetrabenazine, 2-hydroxy-3-(2-methylpropyl)-1,3,4,6,7,11b-hexahydro-9,10-dimethoxy-benzo(a)quinolizine]
plasma concentrations [3]: relatively high concentrations | crossing of the blood-brain barrier [4]: able to cross the blood-brain barrier

Cc1nc2n(c(=O)c1CCN1CCC(c3noc4cc(F)ccc34)CC1)CCCC2 [risperidone, reference compound]
total movement compared to rats treated with the vehicle [5]: reduced total movement | total stereotypic behaviour compared to rats treated with the vehicle [5]: reduced total stereotypic behaviour | normalised total stereotypic behaviour, compared to vehicle-amphetamine group (amphetamine-induced rats; Study 1, 1 mg/kg): significantly different | locomotor activity compared to the vehicle-amphetamine group (conclusion) (amphetamine-induced rats; [7]): lower locomotor activity | stereotypic behaviour compared to the vehicle-amphetamine group (conclusion) (amphetamine-induced rats; [7]): reduced stereotypic behaviour | normalised total stereotypic behaviour, compared to vehicle-amphetamine group (amphetamine-induced rats; Study 2, 1 mg/kg): significantly different | locomotor activity compared to the vehicle-amphetamine group (conclusion) (amphetamine-induced rats; Study 2, (+)-α-DHTBZ at 0.25 mg/kg): lower locomotor activity | stereotypic behaviour compared to the vehicle-amphetamine group (conclusion) (amphetamine-induced rats; Study 2, (+)-α-DHTBZ at both the tested doses (0.1, 0.25 mg/kg)): reduced stereotypic behaviour | normalised total stereotypic behaviour, compared to vehicle-amphetamine group (amphetamine-induced rats; Study 4, 1 mg/kg): significantly different | total distance travelled, compared to vehicle-amphetamine group (amphetamine-induced rats; Study 4, 1 mg/kg): significantly different

COc1cc2c(cc1OC)C1CC(=O)C(CC(C)C)CN1CC2 (stereo not drawn) [tetrabenazine, 1,3,4,6,7,11b-hexahydro-9,10-dimethoxy-3-(2-methylpropyl)-2H-benzo(a)quinolizin-2-one]
plasma concentrations [3]: low plasma concentrations | plasma concentrations [6]: very low plasma concentrations

Source: patent US20220211678A1, “USES OF (+)-A-DIHYDROTETRABENAZINE IN METHODS OF TREATING MOVEMENT DISORDER” (ADEPTIO PHARMACEUTICALS LIMITED, priority 2017, published 2022)
